The values below come from patent US8097443B2, “Nucleotidyltransferases with enhanced nucleotide triphosphate flexibility” (priority 2007, dated 2012).

By Km is commonly meant the substrate concentration at which the rate is half of its maximum.

T3 sequence (P26393 whole entry Q83A): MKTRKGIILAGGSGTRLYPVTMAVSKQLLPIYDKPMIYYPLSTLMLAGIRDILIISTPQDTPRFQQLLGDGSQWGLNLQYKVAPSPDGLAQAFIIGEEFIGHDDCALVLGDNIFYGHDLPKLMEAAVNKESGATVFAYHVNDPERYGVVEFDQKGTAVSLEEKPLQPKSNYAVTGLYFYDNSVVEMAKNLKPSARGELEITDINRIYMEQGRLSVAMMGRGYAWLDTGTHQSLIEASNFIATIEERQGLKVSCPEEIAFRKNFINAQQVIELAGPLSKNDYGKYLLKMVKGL
wt RmlA (glucose-1-phosphate thymidylyltransferase), sequence (P26393 whole entry): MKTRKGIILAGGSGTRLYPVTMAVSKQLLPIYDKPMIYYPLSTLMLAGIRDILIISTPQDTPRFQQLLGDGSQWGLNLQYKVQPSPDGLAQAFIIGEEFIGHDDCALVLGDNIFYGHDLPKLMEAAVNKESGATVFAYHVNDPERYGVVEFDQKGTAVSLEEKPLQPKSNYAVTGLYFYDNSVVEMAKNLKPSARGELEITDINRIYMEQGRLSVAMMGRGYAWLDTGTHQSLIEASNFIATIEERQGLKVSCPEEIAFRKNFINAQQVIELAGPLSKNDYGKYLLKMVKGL

The target of one experiment is T1, RmlA Q83N (Salmonella typhimurium, UniProt P26393, Q83N).
T1 construct: His6 (pET28a) (N); made in house; host or cells: Escherichia coli BL21 (DE3)
T1 sequence (P26393 whole entry Q83N): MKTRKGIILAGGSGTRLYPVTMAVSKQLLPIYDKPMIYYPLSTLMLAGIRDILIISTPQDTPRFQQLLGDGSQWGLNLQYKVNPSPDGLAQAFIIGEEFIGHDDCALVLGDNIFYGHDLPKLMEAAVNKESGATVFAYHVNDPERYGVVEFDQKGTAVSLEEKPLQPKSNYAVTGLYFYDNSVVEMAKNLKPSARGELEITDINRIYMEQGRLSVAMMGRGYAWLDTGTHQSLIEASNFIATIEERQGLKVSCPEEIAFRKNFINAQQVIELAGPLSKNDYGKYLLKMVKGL
As to the kind of experiment: Relative activity of RmlA mutant Q83N with alternative NTPs. The class given is biochemical, Salmonella enterica typhimurium LT2. As to conditions: 10 mM Glucose-1-phosphate, 0.1-10 μM enzyme, 5 mM NTP, 10 mM MgCl2, pH 8.0, 37° C. The text has this:
(§1) RmlA mutagenesis—RmlA mutants were generated with the Quikchange mutagenesis kit (Stratagene, La Jolla, Calif., USA) using the wt RmlA-pET28a parent expression plasmid as the template and the primers indicated in Table 1. Individual progeny plasmids were confirmed by DNA sequencing to carry the desired mutations. Driven by these mutant plasmids, the corresponding RmlA variants were subsequently expressed and purified as described above.
(§2) Enzymatic Reactions—The enzyme assay was accomplished via slight modification of previously reported methods (Jiang et al. (2000) J. Am. Chem. Soc. 122, 6803-6804; Jiang et al. (2001) Angew. Chem., Int. Ed. 40, 1502-1505; Jiang et al. (2003) Chem Bio Chem 4, 443-446; Barton et al. (2002) Proc. Natl. Acad. Sci. U.S.A. 99, 13397-13402). In a typical reaction, sugar-1-phosphate (10 mM final) and enzyme (0.01-50 μM) were mixed with NTP (0.01-40 mM) in the presence of MgCl2 ([NTP]+5 mM) and 10 U/mL inorganic pyrophosphatase (Sigma, St. Louis, Mo., USA) in 100 mM Tris HCl, pH 8.0 (20 μL final volume). Typical reactions were analyzed after 10 min at 37° C. and reaction times were extended for some slow reacting sugar/NTP combinations. Reactions were stopped by the addition of 80 μL prewarmed HPLC buffer and heat inactivation (95° C., 5 min). The amount of enzyme used and the incubation time was adjusted so that the reactions never proceeded to more than 10% turnover for kinetics, or 30% for activity assays.
(§3) Product Characterization—Reactions were analyzed via analytical HPLC (Supelcosil LC18-T; Supelco, Bellefonte, Pa.; 5 μm, 250×3 mm, 40 mM phosphoric acid, pH 6.5 with triethylamine, with a gradient of 0-10% MeOH over 20 min, 0.8 mL/min, A254). Due to earlier elution, a 5 min 0% MeOH isocratic hold was performed prior to starting the gradient for CTP-containing reactions. For nucleotide sugar products with commercially available standards, HPLC peak identity was confirmed by co-elution.
Turning to `Nc1nc2c(ncn2[C@@H]2O[C@H](COP(=O)(O)OP(=O)(O)OP(=O)(O)O)[C@@H](O)[C@H]2O)c(=O)[nH]1` [GTP, guanosine-5′-triphosphate], the “Relative activity of Q83N as compared to wt RmlA” value is 0.2.
As for `O=c1ccn([C@@H]2O[C@H](COP(=O)(O)OP(=O)(O)OP(=O)(O)O)[C@@H](O)[C@H]2O)c(=O)[nH]1` [UTP, uridine-5′-triphosphate], the “Relative activity of Q83N as compared to wt RmlA” value was found to be 0.2.

The target of a further experiment is T2, RmlA Q83S (Salmonella typhimurium, UniProt P26393, Q83S).
T2 construct: His6 (pET28a) (N); made in house; host or cells: Escherichia coli BL21 (DE3)
T2 sequence (P26393 whole entry Q83S): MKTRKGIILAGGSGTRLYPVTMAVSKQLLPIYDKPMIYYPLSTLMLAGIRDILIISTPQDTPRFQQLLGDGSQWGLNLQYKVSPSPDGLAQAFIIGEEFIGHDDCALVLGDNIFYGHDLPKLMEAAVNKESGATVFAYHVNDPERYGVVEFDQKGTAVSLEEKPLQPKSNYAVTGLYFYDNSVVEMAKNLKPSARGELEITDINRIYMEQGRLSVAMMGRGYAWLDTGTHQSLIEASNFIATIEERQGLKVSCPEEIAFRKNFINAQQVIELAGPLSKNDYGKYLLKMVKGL
As to the kind of experiment: Relative activity of RmlA mutant Q83S with alternative NTPs. The class given is biochemical, Salmonella enterica typhimurium LT2. Conditions: 10 mM Glucose-1-phosphate, 0.1-10 μM enzyme, 5 mM NTP, 10 mM MgCl2, pH 8.0, 37° C.
Source text: as §1, §2, §3
With `Nc1nc2c(ncn2[C@@H]2O[C@H](COP(=O)(O)OP(=O)(O)OP(=O)(O)O)[C@@H](O)[C@H]2O)c(=O)[nH]1` [GTP, guanosine-5′-triphosphate], the “Relative activity of Q83S as compared to wt RmlA” value turned out to be 2.2.
With `O=c1ccn([C@@H]2O[C@H](COP(=O)(O)OP(=O)(O)OP(=O)(O)O)[C@@H](O)[C@H]2O)c(=O)[nH]1` [UTP, uridine-5′-triphosphate], the “Relative activity of Q83S as compared to wt RmlA” value was 0.2.

Another experiment addresses wt RmlA (glucose-1-phosphate thymidylyltransferase) (Salmonella typhimurium, UniProt P26393).
Test: not given
Conditions: wild-type RmlA, glucose-1-phosphate. Here is the method:
as §2
(§4) Product Characterization—Reactions were analyzed via analytical HPLC (Supelcosil LC18-T; Supelco, Bellefonte, Pa.; 5 μm, 250×3 mm, 40 mM phosphoric acid, pH 6.5 with triethylamine, with a gradient of 0-10% MeOH over 20 min, 0.8 mL/min, A254). Due to earlier elution, a 5 min 0% MeOH isocratic hold was performed prior to starting the gradient for CTP-containing reactions.
(§5) Kinetic Measurements—Pseudo first order kinetics were obtained by fixing glucose-1-phosphate at a saturating concentration of 10 mM (Barton et al. (2001) Nat Struct Biol 8, 545-551), and titrating NTPs. At least eight different concentrations in the range of ¼×KM to 4×KM (0.09-20 mM for dTTP, 0.2-40 mM for others) were assayed in triplicate. […] Activities were corrected for time and enzyme concentrations, and the kinetic curves were fit to the Michaelis-Menton equation using SigmaPlot with the Enzyme Kinetics module (SPSS, Chicago, Ill., USA).
In the case of `O=c1ccn([C@@H]2O[C@H](COP(=O)(O)OP(=O)(O)OP(=O)(O)O)[C@@H](O)[C@H]2O)c(=O)[nH]1` [UTP, uridine-5′-triphosphate], the “reduction in the apparent RmlA specificity constant (kcat/KM) versus dTTP” value is reported as ~12 fold.

A further experiment has as its system UDP-sugar pyrophosphorylase (Usp).
Test: not given
Conditions: Thermus caldophilus Usp, literature; cited from earlier work.
Regarding `Nc1nc2c(ncn2[C@@H]2O[C@H](COP(=O)(O)OP(=O)(O)OP(=O)(O)O)[C@@H](O)[C@H]2O)c(=O)[nH]1` [GTP, guanosine-5′-triphosphate], the “turnover of glucose-1-phosphate with NTP by Usp” value is listed as “turn over”.
As for `O=c1ccn([C@@H]2O[C@H](COP(=O)(O)OP(=O)(O)OP(=O)(O)O)[C@@H](O)[C@H]2O)c(=O)[nH]1` [UTP, uridine-5′-triphosphate], the “turnover of glucose-1-phosphate with NTP by Usp” value is “turn over”.

The next experiment has as its target T3, RmlA Q83A (Salmonella typhimurium, UniProt P26393, Q83A).
T3 construct: His6 (pET28a) (N); made in house; host or cells: Escherichia coli BL21 (DE3)
The experiment is described as follows: Relative activity of RmlA mutant Q83A with alternative NTPs. The class given is biochemical, Salmonella enterica typhimurium LT2. Conditions: 10 mM Glucose-1-phosphate, 0.1-10 μM enzyme, 5 mM NTP, 10 mM MgCl2, pH 8.0, 37° C.
Source text: as §1, §2, §3
As to `Nc1nc2c(ncn2[C@@H]2O[C@H](COP(=O)(O)OP(=O)(O)OP(=O)(O)O)[C@@H](O)[C@H]2O)c(=O)[nH]1` [GTP, guanosine-5′-triphosphate], the “Relative activity of Q83A as compared to wt RmlA” value was found to be 0.7.
Regarding `O=c1ccn([C@@H]2O[C@H](COP(=O)(O)OP(=O)(O)OP(=O)(O)O)[C@@H](O)[C@H]2O)c(=O)[nH]1` [UTP, uridine-5′-triphosphate], the “Relative activity of Q83A as compared to wt RmlA” value is reported as 0.2.

The target of a further experiment is T4, RmlA Q83D (Salmonella typhimurium, UniProt P26393, Q83D).
T4 construct: using BSA as a standard, and a molecular mass of 34.6 kDa; His6 (pET28a) (N); made in house; host or cells: Escherichia coli BL21 (DE3)
T4 sequence (P26393 whole entry Q83D): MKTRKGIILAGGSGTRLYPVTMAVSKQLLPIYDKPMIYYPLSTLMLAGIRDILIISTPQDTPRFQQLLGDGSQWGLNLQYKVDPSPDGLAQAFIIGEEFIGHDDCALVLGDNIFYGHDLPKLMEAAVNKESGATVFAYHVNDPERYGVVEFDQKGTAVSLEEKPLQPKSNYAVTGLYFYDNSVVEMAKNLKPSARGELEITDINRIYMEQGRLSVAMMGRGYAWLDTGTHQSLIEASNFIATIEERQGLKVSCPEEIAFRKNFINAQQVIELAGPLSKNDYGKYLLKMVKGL
As to the kind of experiment: Relative activity of RmlA mutant Q83D with alternative NTPs. The class given is biochemical, Salmonella enterica typhimurium LT2. As to conditions: 10 mM Glucose-1-phosphate, 0.1-10 μM enzyme, 5 mM NTP, 10 mM MgCl2, pH 8.0, 37° C.
Source text: as §1, §2, §3
For the compound `Nc1nc2c(ncn2[C@@H]2O[C@H](COP(=O)(O)OP(=O)(O)OP(=O)(O)O)[C@@H](O)[C@H]2O)c(=O)[nH]1` [GTP, guanosine-5′-triphosphate], the “Relative activity of Q83D as compared to wt RmlA” value stood at 3.7.
On the same count and under the same terms, for `O=c1ccn([C@@H]2O[C@H](COP(=O)(O)OP(=O)(O)OP(=O)(O)O)[C@@H](O)[C@H]2O)c(=O)[nH]1` [UTP, uridine-5′-triphosphate] the value was 0.2.

The target in another experiment is T4, RmlA Q83D. The experiment is described as follows: Pseudo first order kinetics of RmlA Q83D mutant.
Conditions: not given
The class given is biochemical, Salmonella enterica typhimurium LT2.
Source text: Driven by these mutant plasmids, the corresponding RmlA variants were subsequently expressed and purified as described above.
as §2, §4, §5
On to `Nc1nc2c(ncn2[C@@H]2O[C@H](COP(=O)(O)OP(=O)(O)OP(=O)(O)O)[C@@H](O)[C@H]2O)c(=O)[nH]1` [GTP, guanosine-5′-triphosphate], for which the “improvement in apparent KM, Q83D versus wild-type” value is recorded as 6.5 fold.

The experiment is the same for the next values; noted with them: 10 mM glucose-1-phosphate, 0.05-25 μM enzyme, [NTP] + 5 mM MgCl2, 100 mM Tris-HCl pH 8.0, 37° C.
On to `Nc1nc2c(ncn2[C@@H]2O[C@H](COP(=O)(O)OP(=O)(O)OP(=O)(O)O)[C@@H](O)[C@H]2O)c(=O)[nH]1` [GTP, guanosine-5′-triphosphate], for which the “kcat^app” value turned out to be 0.213 ± 0.015 s⁻¹.

Still in this experiment, the particulars now being: 10 mM glucose-1-phosphate, 0.05-25 μM enzyme, [NTP] + 5 mM MgCl2, 100 mM Tris-HCl pH 8.0, 37° C., read-out: KM^app.
Take `Nc1nc2c(ncn2[C@@H]2O[C@H](COP(=O)(O)OP(=O)(O)OP(=O)(O)O)[C@@H](O)[C@H]2O)c(=O)[nH]1` [GTP, guanosine-5′-triphosphate]: the Km was 1300 ± 400 µM.

The next experiment deals with T5, RmlA Q83E (Salmonella typhimurium, UniProt P26393, Q83E).
T5 construct: His6 (pET28a) (N); made in house; host or cells: Escherichia coli BL21 (DE3)
T5 sequence (P26393 whole entry Q83E): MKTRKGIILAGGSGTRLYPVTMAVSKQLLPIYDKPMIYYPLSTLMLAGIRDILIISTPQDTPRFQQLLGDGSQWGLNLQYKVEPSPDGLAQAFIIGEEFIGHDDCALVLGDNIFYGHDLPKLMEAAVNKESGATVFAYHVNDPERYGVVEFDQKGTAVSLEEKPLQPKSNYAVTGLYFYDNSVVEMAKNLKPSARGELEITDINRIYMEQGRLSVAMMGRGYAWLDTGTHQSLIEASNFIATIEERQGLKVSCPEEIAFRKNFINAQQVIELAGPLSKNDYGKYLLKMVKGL
The experiment is described as follows: Relative activity of RmlA mutant Q83E with alternative NTPs. The class given is biochemical, Salmonella enterica typhimurium LT2. As to conditions: 10 mM Glucose-1-phosphate, 0.1-10 μM enzyme, 5 mM NTP, 10 mM MgCl2, pH 8.0, 37° C.
Source text: as §1, §2, §3
`Nc1nc2c(ncn2[C@@H]2O[C@H](COP(=O)(O)OP(=O)(O)OP(=O)(O)O)[C@@H](O)[C@H]2O)c(=O)[nH]1` [GTP, guanosine-5′-triphosphate]: the “Relative activity of Q83E as compared to wt RmlA” value is recorded as 2.8.
Same read-out and setting: next, `O=c1ccn([C@@H]2O[C@H](COP(=O)(O)OP(=O)(O)OP(=O)(O)O)[C@@H](O)[C@H]2O)c(=O)[nH]1` [UTP, uridine-5′-triphosphate]: 1.3.

Another experiment deals with ST0452 (Sulfurisphaera tokodaii, UniProt Q975F9).
ST0452, sequence (Q975F9 whole entry): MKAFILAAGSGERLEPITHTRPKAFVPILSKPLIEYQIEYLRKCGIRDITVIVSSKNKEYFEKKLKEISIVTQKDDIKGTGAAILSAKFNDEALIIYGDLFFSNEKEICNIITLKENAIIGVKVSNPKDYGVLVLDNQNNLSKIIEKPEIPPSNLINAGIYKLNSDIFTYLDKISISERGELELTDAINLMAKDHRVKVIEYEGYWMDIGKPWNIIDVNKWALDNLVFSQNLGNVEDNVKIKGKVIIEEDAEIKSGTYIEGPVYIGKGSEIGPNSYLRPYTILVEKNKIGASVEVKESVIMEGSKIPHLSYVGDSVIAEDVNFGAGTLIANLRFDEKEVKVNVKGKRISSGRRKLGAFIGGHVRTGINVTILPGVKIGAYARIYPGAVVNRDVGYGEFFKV
Test: not given
Conditions: Sulfolobus tokodaii ST0452, literature; cited from earlier work.
As to `Nc1nc2c(ncn2[C@@H]2O[C@H](COP(=O)(O)OP(=O)(O)OP(=O)(O)O)[C@@H](O)[C@H]2O)c(=O)[nH]1` [GTP, guanosine-5′-triphosphate], the “utilization of NTP by ST0452” value is “could not utilize”.
Regarding `O=c1ccn([C@@H]2O[C@H](COP(=O)(O)OP(=O)(O)OP(=O)(O)O)[C@@H](O)[C@H]2O)c(=O)[nH]1` [UTP, uridine-5′-triphosphate], the “utilization of NTP by ST0452” value was “good activity”.
